Assay results from the CheMixHub viscosity set.

Assay: xn = mol fraction of the nth substance listed

C[N+](C)(C)C.NCC(=O)[O-] + OCC(O)CO
303 K, 101 kPa
Conditions	viscosity [mPa·s]
x1 = 0.065	397.5
x1 = 0.13	390.8
x1 = 0.21	380.1
x1 = 0.29	369.3
x1 = 0.48	346.5
x1 = 0.71	327.7

CC[N+](CC)(CC)CC.[I-] + O
viscosity [mPa·s], 101 kPa
Conditions	x1 = 0.0005	x1 = 0.0009	x1 = 0.0018	x1 = 0.0027	x1 = 0.0036
293.15 K	1.004	1.018	1.037	1.051	1.074
298.15 K	0.893	0.902	0.916	0.931	0.943
303.15 K	0.826	0.835	0.846	0.859	0.872
308.15 K	0.697	0.703	0.713	0.723	0.733

CCCOCCO + O=[N+]([O-])c1ccccc1
298.15 K, 101 kPa
Conditions	viscosity [mPa·s]
x2 = 0.0509	2.336
x2 = 0.1085	2.326
x2 = 0.2052	2.316
x2 = 0.3224	2.304
x2 = 0.3978	2.292
x2 = 0.4501	2.279
x2 = 0.5017	2.262
x2 = 0.5513	2.241
x2 = 0.6026	2.216
x2 = 0.6998	2.154
x2 = 0.8045	2.066
x2 = 0.9028	1.957
x2 = 0.9525	1.888

Nc1cccc2ccccc12 + CCO
viscosity [mPa·s], 101 kPa
Conditions	x1 = 0.0225	x1 = 0.04399	x1 = 0.08427	x1 = 0.1213	x1 = 0.1554	x1 = 0.187	x1 = 0.2163
293.15 K	1.348	1.454	1.7	1.987	2.308	2.667	3.025
303.15 K	1.094	1.176	1.362	1.56	1.786	2.029	2.27
313.15 K	0.903	0.966	1.104	1.251	1.41	1.587	1.759
323.15 K	0.745	0.791	0.899	1.006	1.121	1.254	1.377

CCCOCCO + CO
298.15 K, 101.33 kPa
Conditions	viscosity [mPa·s]
x1 = 0.0024	0.553
x1 = 0.0177	0.581
x1 = 0.041	0.62
x1 = 0.0504	0.644
x1 = 0.0697	0.673
x1 = 0.0903	0.729
x1 = 0.1252	0.801
x1 = 0.159	0.865
x1 = 0.1826	0.914
x1 = 0.2208	0.989
x1 = 0.2613	1.084
x1 = 0.2874	1.149
x1 = 0.3049	1.199
x1 = 0.341	1.284
x1 = 0.3895	1.394
x1 = 0.4426	1.499
x1 = 0.4816	1.577
x1 = 0.5329	1.68
x1 = 0.5596	1.737
x1 = 0.6366	1.878
x1 = 0.6677	1.927
x1 = 0.7153	2.014
x1 = 0.7701	2.115
x1 = 0.8053	2.16
x1 = 0.8437	2.194
x1 = 0.8812	2.248
x1 = 0.9415	2.323
x2 = 0.0116	2.347

CCCOCCO + CC(C)O
298.15 K, 101.33 kPa
Conditions	viscosity [mPa·s]
x1 = 0.0175	2.056
x1 = 0.0326	2.039
x1 = 0.0724	2.009
x1 = 0.0909	1.994
x1 = 0.1266	1.98
x1 = 0.1696	1.971
x1 = 0.2052	1.967
x1 = 0.249	1.967
x1 = 0.295	1.97
x1 = 0.3499	1.977
x1 = 0.398	1.993
x1 = 0.4072	1.997
x1 = 0.4661	2.019
x1 = 0.5167	2.041
x1 = 0.556	2.061
x1 = 0.6058	2.084
x1 = 0.6612	2.119
x1 = 0.7297	2.159
x1 = 0.7751	2.192
x1 = 0.8315	2.23
x1 = 0.8979	2.275
x1 = 0.9565	2.318
